The text below walks through data of patent US20250302831A1, “THERAPY FOR ALCOHOL-RELATED LIVER DISEASE” (THE REGENTS OF THE UNIVERSITY OF CALIFORNIA, priority 2021, published 2025).

The target of series [1] is T1, mAChR4 (Homo sapiens, UniProt P08173).
T1 sequence (P08173 1-479): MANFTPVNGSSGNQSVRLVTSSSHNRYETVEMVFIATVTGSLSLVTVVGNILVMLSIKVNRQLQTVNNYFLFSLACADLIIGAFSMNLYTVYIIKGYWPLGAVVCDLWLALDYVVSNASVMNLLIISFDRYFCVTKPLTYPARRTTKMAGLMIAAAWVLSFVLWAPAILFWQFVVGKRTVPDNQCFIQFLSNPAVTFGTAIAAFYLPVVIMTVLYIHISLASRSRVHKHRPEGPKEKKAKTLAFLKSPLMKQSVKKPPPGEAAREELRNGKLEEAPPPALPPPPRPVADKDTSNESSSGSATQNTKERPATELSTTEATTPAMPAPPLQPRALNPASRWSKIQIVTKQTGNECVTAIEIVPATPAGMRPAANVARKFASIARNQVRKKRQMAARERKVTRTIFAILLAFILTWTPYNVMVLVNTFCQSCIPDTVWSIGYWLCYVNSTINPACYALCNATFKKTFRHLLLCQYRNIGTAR
The settings on record: target not printed with the value; cited from earlier work.

The target in series [2] is T2, hM4 (Homo sapiens, UniProt P08173).
T2 sequence (P08173 1-479): T1 sequence (P08173 1-479)
The settings on record: read-out: hM4 (PAM) EC50; cited from earlier work.

Series [3] relates to WT C57BL/6 mice fed ethanol containing Lieber DeCarli diet. As to the kind of experiment: mAChR4 PAM VU0467154 in chronic ethanol feeding (Lieber DeCarli diet) of WT mice. It counts as in vivo, mouse. An excerpt:
Female mice (age, 8 weeks) were placed on Lieber DeCarli diet for 10 weeks as previously described (Llorente et al., 2017). In brief, the Lieber DeCarli diet comprises Micro Stabilized Rod Liq AC IRR 438 (LD101A; TestDiet), Maltodextrin IRR (9598; TestDiet) and 200-proof ethanol (Koptec). The caloric intake from ethanol was 0 on day 1, 10% of total calories on days 2 and 3, 20% on days 4 and 5, 30% from day 6 until the end of 6 weeks, and 36% until the end of the treatment. Control mice received an isocaloric amount of iso-maltose instead of ethanol.
To enhance GAP formation, WT C57BL/6 mice fed Lieber DeCarli diet containing ethanol or isocaloric iso-maltose for 10 weeks were treated for the last 29 days with the specific mAChR4 PAM VU0467154 (5 mg/kg), which was dissolved in the liquid diet. […]
Real-time quantitative PCR. RNA was extracted from mouse tissues and cDNA was generated 511 (Duan et al., 2019). Primer sequences for mouse genes were obtained from the NIH qPrimerDepot. Gene expression was determined with Sybr Green (Bio-Rad Laboratories) using ABI StepOnePlus real-time PCR system. The qPCR value was normalized to Tbp or 18S housekeeping genes. To quantify the total bacterial load in feces, the 515 qPCR value of 16S rRNA gene for each sample was multiplied by the total amount of DNA (μg) mg^−1 of feces. Published bacterial primer sequences were used for 16S rRNA gene (Maeda et al., 2003) (Table 3). […]
Flow cytometry. Isolation: Small intestine was harvested, and the epithelial cell layer was removed. Pieces were digested in media containing 1 mg/mL collagenase (Millipore Sigma), 0.1 U/mL dispase (Worthington Biochem) and 0.1 mg/mL DNase I (Millipore Sigma) at 37° C. at 150 rpm for 30 minutes. A 40% and 80% Percoll gradient was used to collect the lymphoid fractions at the interphase. Flow cytometry: LP-immune cells were pelleted and blocked with anti-mouse CD16/32 antibody (Thermo Fisher) for 15 minutes. Cells were divided to perform 3 different panels to analyze APCs, ILC3 and Tregs.
Stimulation and staining: To stimulate IL-23 secretion by LP-DCs, cells were re-stimulated in vitro with 100 ng/ml flagellin (Invivogen) for 2.5 hours in the presence of 0.7 μl/ml BD GolgiStop™ (BD Bioscience) to accumulate cytokines and/or proteins. The murine APC panel consisted of CD45.2 (V500, clone 104, BD), CD11c (FITC, clone N418, ThermoFisher), MHC Class II (I-A/I-E) (PE, clone M5/114. 15.2, ThermoFisher), CD11b (PerCP544 Cy5.5, clone M1/70, BD), CD103 (APC-R700, clone M290, BD), CX3CR1 (BV421, clone SA011F11, BioLegend), fixable viability stain (FVS) (575V, BD), IL-10 (BV711, clone JES5-16E3, BD) and IL-23 p19 (AF647, clone N71-1183).
Immunoblot analyses. To measure expression levels of mAChR4, GCs were isolated as described above. Immunoblot analysis was performed as described 33 using anti-AChR4 1:1000 (#AMR-004; Alomone labs) and anti-β-actin 1:5000 (Sigma-Aldrich) antibody as loading control. Protein from proximal small intestine was extracted and immunoblot analysis was performed using anti-Reg3g 1:500 (ab198216, Abcam), anti-Reg3b 1:500 (ABIN1870289, Antibodies online), and anti-IL-10 1:1000 (sc-365858; Santa Cruz Biotechnology) antibodies. Stain-free imaging technology using polyacrylamide gels (BioRad) containing a proprietary trihalo compound to make proteins fluorescent, was employed to calculate total protein. Immunoblots were visualized with a charged coupling device camera in a luminescent image analyzer (Gel-Doc; Bio-Rad). Immunoblots were analyzed by densitometry, using Image Lab version 6.0.1 software (Bio-Rad).

Series [4] relates to rodent model. The settings on record: systemic administration; Walker et al., 2020; cited from earlier work.
The conditions of series [5]: Bubser 2014; Pancani 2015; Gould 2018; cited from earlier work.
For series [6] the following is noted: Bubser 2014; Pancani 2015; Gould 2018; cited from earlier work. This is another data set of the same source.
In series [7] the test system is small intestinal organoids from WT mice. As to the kind of experiment: IL-6 stimulation of small intestinal organoids (Chrm4 mRNA, mAChR4 immunoblot). Format: cell-based, mouse. The settings on record: IL-6 20 ng/ml in the presence of ethanol for 12 hours. The procedure:
Real-time quantitative PCR. RNA was extracted from mouse tissues and cDNA was generated 511 (Duan et al., 2019). Primer sequences for mouse genes were obtained from the NIH qPrimerDepot. Gene expression was determined with Sybr Green (Bio-Rad Laboratories) using ABI StepOnePlus real-time PCR system. The qPCR value was normalized to Tbp or 18S housekeeping genes. To quantify the total bacterial load in feces, the 515 qPCR value of 16S rRNA gene for each sample was multiplied by the total amount of DNA (μg) mg^−1 of feces. Published bacterial primer sequences were used for 16S rRNA gene (Maeda et al., 2003) (Table 3).
Small intestinal organoid isolation and culture. Small intestinal crypts were isolated from WT mice, cultured and stained as described 41 and treated with ethanol (10 and 50 mM) and IL-6 (20 ng/ml) (Biolegend) for 12 hours.
Immunoblot analyses. To measure expression levels of mAChR4, GCs were isolated as described above. Immunoblot analysis was performed as described 33 using anti-AChR4 1:1000 (#AMR-004; Alomone labs) and anti-β-actin 1:5000 (Sigma-Aldrich) antibody as loading control. […] Immunoblots were analyzed by densitometry, using Image Lab version 6.0.1 software (Bio-Rad).
For orientation: Immunoblotting shows a protein as a band on a membrane.

Series [8] concerns cultured GCs. As to the kind of experiment: IL-6 treatment of cultured goblet cells. Format: cell-based.
Where [9] appears, read: ethanol diet 10 weeks, 5 mg/kg in the diet during the last 29 days.
[10] abbreviates: ethanol fed mice, anaerobic culture.
Setting [11] is: ethanol fed mice, cells stimulated with flagellin 100 ng/ml 2.5 hours.
Setting [12] is: ethanol fed mice, proximal small intestine.

Consider `Cc1cc2c(nc1N1CCC(Oc3ccc4c(c3)COC4)CC1)CNC2=O` [MK-4710], for which the half-inhibitory concentration (IC50) (usually the concentration at which inhibition is half-maximal) in series [1] was 17 nM.

For the molecule `Cc1nnc2sc(C(=O)NC3CN(c4cccnc4)C3)c(N)c2c1C` [PT-1148], the EC50 (as a rule, the concentration giving half of the maximal effect) in series [2] was 3 nM.

For `Cc1cc(C)c2c(N)c(C(=O)NC3CN(c4cccnc4)C3)sc2n1` [PT-3763], the EC50 in series [2] was 45 nM.

In the case of `CCOC(=O)N1CCCC(N2CCC(c3cccnc3OC)CC2)CC1` (centres unmarked) [PT-6950], in series [2], the EC50 is 20 nM.

In the case of `Cc1nnc2sc(C(=O)NCc3ccc(S(=O)(=O)C(F)(F)F)cc3)c(N)c2c1C` [VU0467154], in series [3] (setting [9]), the “ethanol-induced liver inflammation (hepatic Cxcl1 mRNA)” value is listed as “protected”; the “ethanol-induced liver injury (plasma ALT, H&E)” value was “protected”; the “ethanol-induced steatosis (ORO-stained liver sections)” value is on record as “protected”. Further, the “ethanol-induced GAP closure (number of GAPs per villus)” value in series [3] (ethanol diet 10 weeks, 5 mg/kg in the diet during the last 29 days, small intestine) is “reduced”. In series [3] (setting [10]), the “ethanol mediated bacterial translocation to MLN (CFU)” value is given as “prevented” and the “ethanol mediated bacterial translocation to liver (CFU)” value was “prevented”. In series [3] (setting [11]), the “Frequencies of CD103+ CD11b+ DC populations” value is reported as “increased” and the “Frequencies of LP-APCs (CD11c+, MHCII+)” value was “increased”. Further, in series [3] (setting [12]), the “intestinal IL-10 expression (immunoblot)” value is “induced”, the “intestinal Reg3b expression (immunoblot)” value is given as “induced” and the “intestinal Reg3g expression (immunoblot)” value was “induced”. Moreover, in series [4], the “ethanol seeking and consumption” value is listed as “reduced”. Moreover, the oral bioavailability result in series [5] is reported as “excellent”. The “gastrointestinal motility side effects” value in series [6] was “no gastrointestinal motility side effects”.

In the case of “IL-6: cytokine (Biolegend) used at 20 ng/ml on organoids”, the “mAChR4 expression (Chrm4 mRNA, mAChR4 protein)” value in series [7] is given as “induced”. The mAChR4 expression entry in series [8] is on record as “induced”.
